Data: ChEMBL document CHEMBL4406816, “Role of sulphur-heterocycles in medicinal chemistry: An update” (Eur J Med Chem, 2019)
Values after ≈ are worked out from the molar mass of the structure shown.

What was measured:
HT-29 = experiment: Growth inhibition of human HT-29 cells by MTT assay; assay type: functional
NCI-H460 = experiment: Growth inhibition of human NCI-H460 cells by MTT assay; assay type: functional
HepG2 = experiment: Growth inhibition of human HepG2 cells by MTT assay; assay type: functional
A-431 = experiment: Anticancer activity against human A431 cells; assay type: functional, cell-based
Jurkat = experiment: Anticancer activity against human Jurkat cells; assay type: functional, cell-based
Streptococcus pneumoniae = experiment: Antibacterial activity against Streptococcus pneumoniae; assay type: functional
[1] = tested on: Feline immunodeficiency virus; experiment: Antiviral activity against Feline immunodeficiency virus; assay type: functional, organism-based
[2] = Antioxidant activity assessed as DPPH radical scavenging activity after 30 mins under dark condition; assay type: functional
Human gammaherpesvirus 4 = experiment: Antiviral activity against Epstein-Barr virus; assay type: functional, organism-based
[3] = tested on: Mycobacterium tuberculosis; experiment: Antitubercular activity against Mycobacterium tuberculosis; assay type: functional
Staphylococcus aureus [4] = experiment: Antibacterial activity against Staphylococcus aureus; assay type: functional, organism-based
Bacillus subtilis = experiment: Antibacterial activity against Bacillus subtilis; assay type: functional, organism-based
Candida albicans = experiment: […] activity against Candida albicans; assay type: functional, organism-based
Escherichia coli = experiment: Antibacterial activity against Escherichia coli; assay type: functional, organism-based
Pseudomonas aeruginosa = experiment: Antibacterial activity against Pseudomonas aeruginosa; assay type: functional, organism-based
Alpha glucosidase = Alpha glucosidase (Homo sapiens, UniProt O43451+P10253+P14410+Q2M2H8); experiment: Inhibition of alpha-glucosidase (unknown origin) using p-nitrophenyl alpha-d-glucopyranoside as substrate preincubated for 15 mins followed by substrate addition measured after 30 mins by spectrophotometric analysis; assay type: protein assay
Rattus norvegicus [5] = experiment: Anti-inflammatory activity against carrageenan-induced Albino Wistar rat paw edema model assessed as inhibition of rat paw edema at 50 mg/kg, po pretreated for 1 hr followed by carrageenan addition measured after 1 to 4 hrs relative to control; assay type: functional
Leishmania amazonensis = experiment: Antileishmanial activity against Leishmania amazonensis promastigotes; assay type: functional, organism-based
[6] = biological target: Quinolone resistance protein NorA (Staphylococcus aureus) (UniProt P0A0J7); experiment: Inhibition of NorA in Staphylococcus aureus measured after 1 hr by ethidium bromide staining based agar-cartwheel assay method
MCF7 [7] = experiment: Cytotoxicity against human MCF7 cells after 72 hrs by MTT assay; assay type: functional, cell-based; conditions: MCF7, 72 h
MCF7 [8] = experiment: Potency index, ratio of doxorubicin IC50 to compound IC50 for human MCF7 cells; assay type: functional
[9] = biological target: 72 kDa type IV collagenase (Homo sapiens, UniProt P08253); experiment: Inhibition of MMP2 catalytic domain (unknown origin) using Ac-PLG-[2-mercapto-4-methylpentanoyl]-LG-OC2H5 as substrate preincubated for 45 to 120 mins followed by substrate addition measured for 30 mins in 1 min time interval
Sequence of 72 kDa type IV collagenase (P08253 whole entry, the tested form may be a part): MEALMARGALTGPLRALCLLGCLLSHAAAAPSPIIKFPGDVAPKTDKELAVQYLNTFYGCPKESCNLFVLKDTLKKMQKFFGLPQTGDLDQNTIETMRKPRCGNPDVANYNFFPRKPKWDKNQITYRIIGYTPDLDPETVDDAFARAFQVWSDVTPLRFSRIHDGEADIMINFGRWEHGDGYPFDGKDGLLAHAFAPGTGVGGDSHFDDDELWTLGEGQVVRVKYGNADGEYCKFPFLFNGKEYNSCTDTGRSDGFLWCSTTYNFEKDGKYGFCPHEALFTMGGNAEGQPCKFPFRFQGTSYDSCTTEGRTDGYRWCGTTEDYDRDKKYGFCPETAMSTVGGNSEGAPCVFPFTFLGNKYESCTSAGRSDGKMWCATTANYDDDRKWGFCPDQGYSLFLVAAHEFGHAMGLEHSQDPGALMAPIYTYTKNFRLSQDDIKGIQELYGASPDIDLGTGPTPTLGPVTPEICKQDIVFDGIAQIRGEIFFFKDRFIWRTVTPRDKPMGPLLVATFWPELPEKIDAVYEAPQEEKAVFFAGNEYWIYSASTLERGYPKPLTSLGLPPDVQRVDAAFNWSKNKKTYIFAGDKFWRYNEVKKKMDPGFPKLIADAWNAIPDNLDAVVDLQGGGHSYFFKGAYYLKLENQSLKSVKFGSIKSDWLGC

Psilocybe cubensis = experiment: Antifungal activity Psilocybe cubensis; assay type: functional, organism-based
Phytophthora infestans = experiment: Antifungal activity Phytophthora infestans; assay type: functional, organism-based
RAW264.7 = experiment: Anti-inflammatory activity against mouse RAW264.7 cells assessed as inhibition of LPS-induced NO production at 50 ug/ml relative to control; assay type: functional; design: scale not given: the % may be the effect or the level left
MCF7 [10] = experiment: Growth inhibition of human MCF7 cells after 48 hrs by SRB assay; assay type: functional; conditions: MCF7, 48 h
Rattus norvegicus [11] = experiment: Anti-inflammatory activity against carrageenan-induced Albino Wistar rat paw edema model assessed as inhibition of rat paw edema at 10 mg/kg, po pretreated for 1 hr followed by carrageenan addition measured after 1 to 4 hrs relative to control; assay type: functional
Klebsiella pneumoniae = experiment: Antibacterial activity against Klebsiella pneumoniae; assay type: functional, organism-based
Staphylococcus aureus [12] = experiment: Antibacterial activity against Staphylococcus aureus ATCC 6538 by broth microdilution method; assay type: functional
Staphylococcus aureus [13] = experiment: Antibacterial activity against Staphylococcus aureus ATCC 25923 by broth microdilution method; assay type: functional
[14] = tested on: Staphylococcus epidermidis; experiment: Antibacterial activity against Staphylococcus epidermidis ATCC 12228 by broth microdilution method; assay type: functional
Rattus norvegicus [15] = experiment: Anti-inflammatory activity against carrageenan-induced Albino Wistar rat paw edema model assessed as inhibition of rat paw edema at 50 mg/kg, po after 5 hrs relative to control; assay type: functional
[16] = biological target: Prostaglandin G/H synthase 2 (Homo sapiens, UniProt P35354); experiment: Inhibition of COX2 (unknown origin) by EIA
Sequence of Prostaglandin G/H synthase 2 (P35354 whole entry): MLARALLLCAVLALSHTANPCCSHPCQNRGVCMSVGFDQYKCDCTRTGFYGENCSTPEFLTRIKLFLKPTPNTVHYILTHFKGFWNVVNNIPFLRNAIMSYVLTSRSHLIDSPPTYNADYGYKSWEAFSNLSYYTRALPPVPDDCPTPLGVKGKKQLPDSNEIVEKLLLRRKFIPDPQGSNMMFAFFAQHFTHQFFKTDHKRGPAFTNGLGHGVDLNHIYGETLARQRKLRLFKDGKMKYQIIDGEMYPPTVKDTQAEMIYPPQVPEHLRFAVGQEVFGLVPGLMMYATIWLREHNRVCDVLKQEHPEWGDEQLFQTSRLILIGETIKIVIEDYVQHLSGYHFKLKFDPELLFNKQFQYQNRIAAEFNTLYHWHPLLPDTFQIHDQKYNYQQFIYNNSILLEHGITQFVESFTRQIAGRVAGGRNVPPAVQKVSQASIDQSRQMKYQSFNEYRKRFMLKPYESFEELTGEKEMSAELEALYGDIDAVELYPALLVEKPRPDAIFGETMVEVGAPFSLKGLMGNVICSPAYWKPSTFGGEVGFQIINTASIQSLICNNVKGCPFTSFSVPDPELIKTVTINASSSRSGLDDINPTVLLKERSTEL

[17] = biological target: Large neutral amino acids transporter small subunit 1 (Homo sapiens, UniProt Q01650); experiment: Inhibition of recombinant human LAT1
Sequence of Large neutral amino acids transporter small subunit 1 (Q01650 whole entry): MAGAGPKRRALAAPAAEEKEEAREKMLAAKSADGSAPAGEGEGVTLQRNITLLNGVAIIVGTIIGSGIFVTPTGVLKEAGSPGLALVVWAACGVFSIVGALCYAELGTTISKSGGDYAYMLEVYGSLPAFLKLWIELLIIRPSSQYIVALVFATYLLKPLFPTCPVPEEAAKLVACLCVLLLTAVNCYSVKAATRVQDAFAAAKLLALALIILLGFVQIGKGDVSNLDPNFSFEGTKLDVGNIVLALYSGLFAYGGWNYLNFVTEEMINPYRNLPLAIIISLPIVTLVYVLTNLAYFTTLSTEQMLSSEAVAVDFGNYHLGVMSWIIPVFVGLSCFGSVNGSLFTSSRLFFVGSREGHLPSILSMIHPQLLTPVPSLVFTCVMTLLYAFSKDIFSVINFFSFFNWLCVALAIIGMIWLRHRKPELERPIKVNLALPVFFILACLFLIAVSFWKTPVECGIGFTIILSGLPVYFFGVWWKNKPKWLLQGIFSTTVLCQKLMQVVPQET

[18] = biological target: Peroxisome proliferator-activated receptor gamma (Homo sapiens, UniProt P37231); experiment: Inhibition of PPARgamma (unknown origin)
Sequence of Peroxisome proliferator-activated receptor gamma (P37231 whole entry): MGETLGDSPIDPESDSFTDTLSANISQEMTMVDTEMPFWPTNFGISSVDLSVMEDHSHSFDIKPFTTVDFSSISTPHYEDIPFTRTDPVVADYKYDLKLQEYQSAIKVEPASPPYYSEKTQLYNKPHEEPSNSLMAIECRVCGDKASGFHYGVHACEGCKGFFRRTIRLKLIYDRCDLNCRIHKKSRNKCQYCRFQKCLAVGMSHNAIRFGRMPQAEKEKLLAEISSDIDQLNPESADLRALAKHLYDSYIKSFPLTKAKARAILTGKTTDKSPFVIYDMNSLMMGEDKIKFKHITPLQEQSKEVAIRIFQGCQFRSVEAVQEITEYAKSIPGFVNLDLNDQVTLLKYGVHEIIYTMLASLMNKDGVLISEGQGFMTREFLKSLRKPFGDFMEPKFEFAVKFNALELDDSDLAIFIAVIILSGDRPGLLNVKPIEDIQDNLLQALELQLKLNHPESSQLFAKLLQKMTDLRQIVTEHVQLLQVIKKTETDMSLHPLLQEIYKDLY

## COc1cccc2c1C(=O)c1c(O)c3c(c(O)c1C2=O)C[C@@](O)(C(=O)CO)C[C@@H]3O[C@H]1C[C@H](N)[C@H](O)[C@H](C)O1 [DOXORUBICIN]
HT-29
  GI50: 0.05 µM
NCI-H460
  GI50: 0.09 µM
HepG2
  GI50: 0.04 µM
A-431
  IC50: 42.4 µM
Jurkat
  IC50: 45.9 µM

## CC1(C)S[C@@H]2[C@H](NC(=O)[C@H](N)c3ccccc3)C(=O)N2[C@H]1C(=O)O [AMPICILLIN]
Streptococcus pneumoniae
  MIC: 0.03 mg/L (≈ 0.0859 µM)

## S=c1ssnc1-c1ccccc1
[1]
  EC50: 0.023 µM

## C=CCNc1nc(C)c(C2=NN(C(N)=S)[C@H](c3ccc(Cl)cc3)C2)s1
Streptococcus pneumoniae
  MIC: 0.12 mg/L (≈ 0.306 µM)

## O=C1O[C@H]([C@@H](O)CO)C(O)=C1O [ASCORBIC ACID]
[2]
  IC50: 16.9 µM

## COc1ccc([C@H]2c3sc(=O)[nH]c3SC[C@H]2C=O)cc1
Human gammaherpesvirus 4
  EC50: 0.07 µM

## Fc1ccc(-c2cn(Cc3csc(-c4ccccc4)n3)nn2)cc1
[3]
  MIC: 8.99 mg/L (≈ 26.7 µM)

## O=C(N[C@H](CO)[C@H](O)c1ccc([N+](=O)[O-])cc1)C(Cl)Cl [CHLORAMPHENICOL]
Staphylococcus aureus [4]; Staphylococcus aureus
  IC50: 22.5 µM
Bacillus subtilis; Bacillus subtilis
  IC50: 22.5 µM
Candida albicans; Candida albicans
  IC50: 22.5 µM
Escherichia coli; Escherichia coli
  IC50: 22.5 µM
Pseudomonas aeruginosa; Pseudomonas aeruginosa
  IC50: 22.5 µM

## COc1ccc(-c2csc(NC(=O)CSc3nnc(-c4ccc(Br)cc4)c(-c4ccc(Br)cc4)n3)n2)cc1
Alpha glucosidase
  IC50: 2.85 µM

## N#Cc1c(-c2ccc(N3CCOCC3)cc2)csc1NC(=O)CN1CCOCC1
Rattus norvegicus [5]
  inhibition in vivo at 50 mg/kg: 58.5%

## Cc1ccc(Nc2nc(N(C)C)c(C#N)s2)cc1C
A-431
  IC50: 34.3 to 34.8 µM
Jurkat
  IC50: 34.8 µM

## COc1ccc2nc3cc(Cl)ccc3c(Nc3sc4c(c3C#N)CCC4)c2c1
Leishmania amazonensis
  IC50: 9.6 µM

## O=C(Nc1nc(=S)ss1)c1ccc(Cl)cc1
[6]
  MIC: 0.5 mg/L (≈ 1.73 µM)

## COc1ccc(C2SCC(=O)N2c2ccc3nc(Cc4ccc(O)cc4)c(=O)[nH]c3c2)cc1 (configuration not stated)
[2]
  IC50: 19.6 µM

## N#Cc1c(/N=C/c2cc3cc(Br)ccc3[nH]2)sc2c1CCCCC2
MCF7 [7]
  IC50: 14.9 µM
MCF7 [8]
  Ratio IC50: 3.51

## O=S(=O)(CC1CS1)c1ccc(-n2cc(-c3ccc(-c4ccncc4)cc3)nn2)cc1 (configuration not stated)
[9]
  IC50: 0.62 µM

## O=C(c1cccc(Br)c1)N1CCC(c2cc(-c3snc(Cl)c3Cl)ns2)CC1
Psilocybe cubensis
  EC50: 0.046 mg/L (≈ 0.0914 µM)
Phytophthora infestans
  EC50: 0.27 mg/L (≈ 0.536 µM)

## N#Cc1ccc(/N=N/c2ccc(/C=C3\SC(=O)NC3=O)c(/N=N/c3ccc(C#N)cc3)c2O)cc1
RAW264.7
  Activity: 60%

## N#Cc1ccccc1-c1nnc(-c2ccc(/C=C3\SC(=O)NC3=O)cc2)o1
MCF7 [10]
  GI50: 0.004 µM

## COc1ccc2c(c1)c(CC(=O)O)c(C)n2C(=O)c1ccc(Cl)cc1 [INDOMETHACIN]
Rattus norvegicus [11]
  inhibition in vivo at 10 mg/kg: 47.7%

## GENTAMICIN
Klebsiella pneumoniae
  MIC: 0.03 mg/L

## O=C(CC1SC(=O)NC1=O)Oc1ccc(/C=C2/SC(=O)NC2=O)cc1Br (configuration not stated)
Staphylococcus aureus [12]
  MIC: 3.91 mg/L (≈ 8.55 µM)
Staphylococcus aureus [13]
  MIC: 3.91 mg/L (≈ 8.55 µM)
[14]
  MIC: 7.81 mg/L (≈ 17.1 µM)

## NYSTATIN
Staphylococcus aureus [4]
  IC50: 7.3 µM
Bacillus subtilis
  IC50: 7.3 µM
Candida albicans
  IC50: 7.3 µM
Escherichia coli
  IC50: 7.3 µM
Pseudomonas aeruginosa
  IC50: 7.3 µM

## COc1ccc(-c2nn(-c3ccc(S(C)(=O)=O)cc3)cc2/C=C2\SC(=O)NC2=O)cc1
Rattus norvegicus [15]
  inhibition in vivo at 50 mg/kg: 80.2%
[16]
  IC50: 0.88 µM

## FC(F)(F)Oc1ccc(/N=c2\ssnc2Cl)nc1
[17]
  IC50: 0.98 µM

## O=C(O)c1sc(-c2ccc(Cl)cc2)cc1C1C=C(c2ccccc2)c2c1ncn1c(-c3ccc(Cl)cc3)nnc21 (configuration not stated)
HT-29
  GI50: 0.03 µM
NCI-H460
  GI50: 0.05 µM
HepG2
  GI50: 0.02 µM

## CCCCNC(=O)CN1C(=O)S/C(=C/c2ccc(Cl)cc2)C1=O
[18]
  EC50: 5.9 µM
